Columns and labels:
Assay type in all cases: cell-based, Klebsiella pneumoniae
[1] = tested on: K. pneumoniae cell membrane; assay: Cell membrane integrity by propidium iodide uptake; details: peptide 31.25 µg mL^−1, 24 h
Method: The assay was conducted as described by Oliveira et al., with some modifications. Preparation of cell suspension was completed as mentioned above. After, 50 µL of the diluted bacteria solution was incubated in the dark for 24 h, at 37 °C, with 50 µL of the peptide solution (31.25 µg mL^−1) previously prepared with 5% of dimethyl sulfoxide (DMSO) diluted in 0.15 M NaCl solution. The assay was conducted in 1.5 mL microtubes. The diluted bacteria solution was incubated only with the DMSO-NaCl solution for control. After incubation, the microtubes were centrifuged (5000× g, 5 min, 4 °C) and washed three times. Next, the washed cells were incubated with 1 µM propidium iodide for 30 min, in the dark, at 37 °C. After this, the cells were washed two times with saline solution to remove the excess fluorophore and observed with a fluorescence microscope (Olympus System BX 60; excitation wavelength, 488 nm; emission wavelength, […]).

K. pneumoniae cells = assay: ROS overproduction (DCFH-DA fluorescence microscopy); details: peptide 31.25 µg mL^−1, 24 h, 1 mM DCFH-DA 30 min
Method: This assay was conducted in the same way as above but with a few differences. The preparation of cell suspension and the antimicrobial assay was performed in the same way described above. After the three rounds of centrifugation and washes, the cells were incubated with 1 mM 2,7-dichlorofluorescein diacetate (DCFH-DA) for 30 min, in the dark, at 37 °C. After the washes, the cells were also observed under a fluorescence microscope (Olympus System BX60; excitation wavelength, 488 nm; emission wavelength, 525 nm).

K. pneumoniae biofilm = assay: Antibiofilm assay: inhibition of biofilm formation, crystal violet; details: peptide 31.25 μg mL^−1; 48 h, 37 °C; crystal violet O.D. 600 nm; triplicate, three independent experiments
Method: The antibiofilm assay was conducted in flat-bottom 96-well polystyrene microplates as described by Neto et al.. A single colony of K. pneumoniae was collected in stock Petri plates containing inoculated Mueller–Hinton agar. The colony was used as inoculum for 5 mL of Mueller–Hinton broth, and the media was incubated for 24 h in the dark at 37 °C. In sequence, the O.D. of the cell suspension was measured using a microplate reader (Epoch, BioTek) and adjusted to 0.1 at 630 nm with Mueller–Hinton broth. For the inhibition of biofilm formation, 50 µL of the cell ([…]) suspension was incubated with 50 µL of the peptide (31.25 μg mL^−1) solution and 50 µL of the respective controls described above. The incubation lasted for 48 h at 37 °C. For the biofilm degradation assay, 50 µL of the cell suspension was incubated for 24 h at 37 °C. After this, 50 µL of the peptide solution and the respective controls were added to the wells containing the preformed biofilm and incubated for 24 h at 37 °C.
After incubation, both wells of biofilm formation inhibition and biofilm degradation were washed once with a sterile saline solution. Then, the wells were fixated with 100 µL methanol 99% for 15 min. […] Then, the crystals stained on the biofilm were diluted with 200 µL of 33% acetic acid, and the O.D was measured using a wavelength of 600 nm. […]

CPAIQRCC [Mo-CBP3-PepI] was tested, and the “pore size indicated by movement of PI” value [1] was 692.50 Da, the “membrane pore formation (PI uptake)” value ([1]; 37 °C, 1 µM PI 30 min, fluorescence microscopy) was “induced the pore formation” and the ROS overproduction (K. pneumoniae cells) was “slight accumulation of ROS”. For the same sequence, the “Inhibition of Biofilm Formation (%)” value (K. pneumoniae biofilm) was 11.87 ± 0.001%.

— paper PMC9774128, “New Insights into the Mechanism of Antibacterial Action of Synthetic Peptide Mo-CBP3-PepI against Klebsiella pneumoniae” (Antibiotics, 2022)
